Test results taken from publication PMC3049593 (British Journal of Cancer, 2011).

Experiments:
Hep3b2.1-7 tumours = test: orthotopic Hep3b2.1-7 human liver cancer model; type: in vivo, mice
Experimental: (§1) In the orthotopic Hep3b2.1-7 human liver cancer model, treatment of mice (n=10) began 14 days after inoculation of 2.5 × 10^6 cells. […] To initiate tumour xenografts, MDA-MB-231, PC3, Cal27 and HepG2 cells were injected s.c. into nude mice (n=8) at 4, 5, 2 and 2 × 10^7 cells ml^−1, respectively. […] In the B16F0 lung metastasis model, 2 × 10^5 cells were injected via the tail vein of C57Bl6 mice (n=8). […] Surface lung macrometastases were counted for each group (n=9) upon study termination. In the intrasplenic HT-29 xenograft model, 1 × 10^6 cells in 100 μl were injected into the spleen. […] Solid tumours were measured in two dimensions (length and width) and the tumour volume (cm^3) was calculated using the equation: V=length × width^2 × π/6. The anti-tumour activity was expressed as percent tumour growth inhibition (%TGI). Further details are available in Supplementary Methods. […]
In the Hep3b2.1-7 model, the cells resuspended in HBSS:MatrigelTM (1:1, v/v) to a final concentration of 5 x 10^8 cells/mL were inoculated following an incision into the skin directly over the liver to expose the main lobe of the liver. The needle was introduced into the main lobe of the liver, where 2.5 x 106 Hep3b2.1-7 cells (in 5 µL with 50% Matrigel) were discharged. The treatment of mice began 24 days after inoculation of the […]
either a once or twice weekly dosing schedule (see figure legends for dose schedules in each study) for up to three weeks. […]
efficacy/PK study) using either a once or twice weekly dosing schedule (see figure legends for dose schedules in each study) for up to three weeks. […]
In relevant models, solid tumours were measured in two dimensions (length and width) and the tumour volume (mm3) calculated using the equation V = length × width2 × π/6.The anti-tumour activity was assessed by the comparison of the mean tumour volume of the treated groups to the mean tumour volume of the control group and expressed as the percent Tumour Growth Inhibition (TGI) using the equation:
%TGI = (1-((VendPG545 - VstartPG545) / (VendControl - VstartControl)))*100 VendPG545 = Ending Tumour Volume of PG545-treated animal
VstartPG545 = Starting Tumour Volume of PG545-treated animal
VendControl = Ending Tumour Volume of Control animal
VstartControl = Starting Tumour Volume of Control animal […]
After collection, 0.2 mL of […]
whole blood was added to a glass scintillation vial to which 1 mL Solvable was added.
Samples were incubated for one hour at 55-60°C. 0.1 mL of 0.1 M EDTA-di-sodium salt solution and 0.3 mL to 0.5 mL of 30% hydrogen peroxide in 0.1 mL aliquots were added to the sample. Samples were gently agitated between additions to allow reaction foaming to subside. Samples were incubated for 30 minutes at room temperature. […]

HepG2 tumours = test: HepG2 liver xenograft model; type: in vivo, nude mice
Experimental: as §1
antibody. […]
staining. For quantification, three independent visual fields (20x magnification) were chosen and positive stained spots or vessels with identifiable lumen were counted.
Angiogenesis inhibition and induction were calculated using the equations: […]
regimen both before and after tumour cell inoculation (days -6, -3, 0, +3, +6) or only after tumour cell inoculation (days 0, +3, +6). B16 cell (2x105) were inoculated via tail vein injections and mice were culled and assessed for lung metastases on day 12. […]

CC(C)CCC[C@@H](C)[C@H]1CCC2C3CCC4C[C@@H](O[C@@H]5O[C@H](COS(=O)(=O)[O-])[C@@H](O[C@H]6O[C@H](COS(=O)(=O)[O-])[C@@H](O[C@H]7O[C@H](COS(=O)(=O)[O-])[C@@H](O[C@H]8O[C@H](COS(=O)(=O)[O-])[C@@H](OS(=O)(=O)[O-])[C@H](OS(=O)(=O)[O-])[C@H]8OS(=O)(=O)[O-])[C@H](OS(=O)(=O)[O-])[C@H]7OS(=O)(=O)[O-])[C@H](OS(=O)(=O)[O-])[C@H]6OS(=O)(=O)[O-])[C@H](OS(=O)(=O)[O-])[C@H]5OS(=O)(=O)[O-])CC[C@]4(C)C3CC[C@@]21C.[Na+].[Na+].[Na+].[Na+].[Na+].[Na+].[Na+].[Na+].[Na+].[Na+].[Na+].[Na+].[Na+] (some centres unmarked) [PG545]
TGI (Hep3b2.1-7 tumours; 20 mg kg^−1 loading dose then 10 mg kg^−1 twice-weekly): 55% | TGI (Hep3b2.1-7 tumours; 20 mg kg^−1 twice-weekly s.c.): 52% | TGI (Hep3b2.1-7 tumours; once-weekly 20 mg kg^−1 followed by 10 mg kg^−1): 65% | TGI (HepG2 tumours; 20 mg kg^−1 once-weekly s.c.): 55% | TGI (HepG2 tumours; 20 mg kg^−1 twice-weekly s.c.): 45%
